Results: patent publication US20080318869A1, “Method to Promote Wound Healing” (IMMUNEREGEN BIOSCIENCES, INC., priority 2004, published 2008)

System: tail wounds of irradiated mice
Test: Healing of tail bite wounds in irradiated mice
Format: in vivo
Conditions: male mice with tail bite wounds; 7, 8, or 9 Gy 60 Cobalt gamma radiation single acute dose; direct muscle injection 0.5 ml bolus at 2 micromolar; 7 weeks post-radiation exposure; saline controls had unhealed tail wounds
Procedure: The male mice fought while confined with four mice/bin. They sustained extensive tail wounds from biting. We then exposed the mice to either 7, 8, or 9 Gy 60 Cobalt gamma radiation in a single acute dose. [Sar^9,Met(02)^11]-substance P was administered by direct muscle injection in a 0.5 ml bolus at 2 micromolar concentration. Control animals received injections of normal saline.

[Sar^9,Met(O2)^11]-substance P
unhealed tail wounds: did not have any unhealed tail wounds
